Experimental data reported in patent publication US9795580B2, “Ketone supplements for treatment of angelman syndrome” (priority 2015, dated 2017).
“Also recorded” adds a separate entry of the source.

How the values were obtained:
[1] = tested on: kidney and liver function; experiment: Chronic feeding of ketone supplements: serum clinical chemistry for kidney and liver function; format: in vivo, Sprague Dawley rats; set-up: key: ns = no change from control; conditions: rat serum, 15 weeks, vs SD-fed control
From the text: (§1) Male Sprague Dawley rats (N=10/group) were fed ad libitum (approximate dose based on food intake recorded during study) for the study duration (15 weeks).
(§2) Measured Parameters: • Weight • Food/calorie intake • Blood glucose • Blood ketones • Triglycerides • Total Cholesterol • HDL • LDL • Safety/toxicity—serum clinical chemistry tests for kidney and liver function Inflammatory Profile: […]

[2] = Chronic feeding of ketone supplements: weight and caloric intake; format: in vivo, Sprague Dawley rats; conditions: for Approximate caloric intake compared to controls: rats, following adaptation to diet (weeks 13-15)
From the text: as §1, §2

[3] = tested on: serum cytokines/chemokines; experiment: Chronic feeding of ketone supplements: serum inflammatory profile; format: in vivo, Sprague Dawley rats; set-up: key to MIP-1a, change from control / IL-4, change from control / IL-1b, change from control / IL-2, change from control / IL-10, change from control / IFNy, change from control / IL-5, change from control / IL-17a, change from control / IL-18, change from control / MCP-1, change from control / IP-10, change from control / GRO/KC, change from control / VEGF, change from control / LIX, change from control / MIP-2, change from control / TNF-a, change from control / RANTES, change from control / G-CSF, change from control / GM-CSF, change from control / IL-1a, change from control / Leptin, change from control: ↑: Increased from control; ↓: Decreased from control; —: no change; T: Trend towards significance; *p < 0.05; **p < 0.01; ***p < 0.001; conditions: rat serum, 15 weeks
From the text: as §1, §2

Ube3a-deficient mice [4] = experiment: Associative fear conditioning; format: in vivo; conditions: AS mice
Protocol: (§3) Mice. Mice with the UBE3A null mutation (AS) were described previously (Jiang Y H et al., Neuron, 1998, 21(4):799-811). All experiments were performed on mice that have been backcrossed to the C57BL/6 line (Jackson Labs, Bar Harbor, Me.) for at least 5 generations. Female C57BL/6 mice containing the null mutation were bred with C57BL/6 (WT) males to produce maternally-deficient AS offspring and WT littermate controls. Audiogenic seizure experiments were performed on mice with the 129/SvEv background, with the same breeding scheme as the C57BL/6 mice. Animals were kept on a 12 hour light-dark cycle and food and water provided ad libitum. All animal testing procedures were approved by the Institutional Animal Care and Use Committee of the University of South Florida and followed the NIH guidelines for the care and use of laboratory animals.
(§4) Ketone ester administration. Control mice received standard rodent chow fed ad libitum. Mice receiving the ketone supplement were administered BD-AcAc2 with their standard rodent chow ad libitum.
Associative fear conditioning. Fear conditioning was used to assess hippocampal function and associative learning and memory. Training included 2 shock-tone (CS/US) pairings. Detailed methods have been previously described (Trotter, J. et al., The Journal of Neuroscience, 2013, 33(39):[…]). […]

Ube3a-deficient mice [5] = experiment: Induced audiogenic seizures; format: in vivo; conditions: for latency to seize: AS treated vs AS control mice, audiogenic seizures
Protocol: as §3, §4
Induced audiogenic seizures. Seizures were induced by exposing mice to a 120-dB white noise in a sound-attenuated chamber until seizures occurred or for a maximum of 60 s. Both seizure frequency and threshold (time until seizures began) were recorded.

Ube3a-deficient mice [6] = experiment: Kainic acid-induced seizures; format: in vivo; conditions: kainic acid 20 mg/kg i.p.; 10 and 45 minutes post-administration; AS treated vs AS control
Protocol: as §3, §4
Kainic acid injections. Mice were injected with 20 mg/kg of kainic acid i.p. and were monitored for seizure activity for 45 minutes and behavioral seizure score was recorded (modified Racine's scale).

Ube3a-deficient mice [7] = experiment: Novel object recognition; format: in vivo; conditions: AS mice, 24 hours following training
Protocol: as §3, §4
Novel Object Recognition. Novel object recognition was used to evaluate recognition memory. Following habituation to an open field arena, mice were allowed to explore the arena containing two identical objects for 15 minutes. 24 hours following training, a novel object replaced one of the old objects and mice were allowed to explore for 5 minutes.

[8] = Group weights of AS mice on ketone ester diet; format: in vivo; conditions: 10% BD-AcAc2 in chow ad libitum, 8 weeks, vs AS controls
Protocol: as §3, §4
(§5) The inventors hypothesized that supplemental ketone administration would decrease seizure frequency, increase seizure threshold, and improve hippocampal-dependent cognition and motor learning deficiencies.

Ube3a-deficient mice [9] = experiment: Rotarod testing; format: in vivo; conditions: AS mice, treated vs AS littermate controls
Protocol: as §3, §4
Rotarod testing. Mice were placed on a rotating rod (Rotarod, Ugo Basile, Italy) that accelerated from 4 to 40 rpm. For two consecutive days, four trials were performed per day with a 45-60 min interval between trials. The maximum duration of each trial was 5 minutes. The time that the mice fell off the rod was recorded. […]

[10] = Blood glucose and ketone levels in AS mice; format: in vivo; conditions: for blood ketones: AS mice on KE diet vs WT and AS controls; for blood glucose: AS mice on KE diet vs WT and AS mice on control diet
Protocol: as §4
Blood glucose and ketone levels. Blood was collected from the tip of the tail weekly using the Precision Xtra system with both glucose and ketone test strips, each requiring 0.6 μL samples.
as §5

[11] = listed as ketone ester supplement

SMILES: CC(=O)CC(=O)OCCC(C)OC(=O)CC(C)=O (racemic) [HKE]
- Alanine Aminotransferase (ALT) [1]: Ns
- Albumin [1]: Ns
- Alkaline Phosphatase (ALP) [1]: Ns
- Blood Urea Nitrogen (BUN) [1]: Ns
- Calcium [1]: Ns
- Chloride [1]: Ns
- Cholesterol [1]: Ns
- Creatinine [1]: Ns
- Gamma Glutamyltransferase (GGT) [1]: Ns
- Globulin [1]: Ns
- Glucose [1]: Ns
- Phosphorous [1]: Ns
- Potassium [1]: Ns
- Sodium [1]: Ns
- Total Bilirubin [1]: Ns
- Total Protein [1]: Ns
- Approximate caloric intake compared to controls [2]: ~−7 % kcal
- Eotaxin, change from control [3]: ↓**
- Fractalkine, change from control [3]: ↑*
- G-CSF, change from control [3]: ↓T
- GM-CSF, change from control [3]: —
- GRO/KC, change from control [3]: ↓T
- IFNy, change from control [3]: ↓*
- IL-1a, change from control [3]: ↓*
- IL-1b, change from control [3]: ↓*
- IL-2, change from control [3]: ↓T
- IL-4, change from control [3]: —
- IL-5, change from control [3]: ↓*
- IL-6, change from control [3]: ↓*
- IL-10, change from control [3]: ↓T
- IL-12(p70), change from control [3]: ↓*
- IL-13, change from control [3]: ↓**
- IL-17a, change from control [3]: —
- IL-18, change from control [3]: ↓T
- IP-10, change from control [3]: ↓***
- LIX, change from control [3]: ↓*
- Leptin, change from control [3]: ↓*
- MCP-1, change from control [3]: ↓T
- MIP-1a, change from control [3]: —
- MIP-2, change from control [3]: —
- RANTES, change from control [3]: ↓**
- TNF-a, change from control [3]: —
- VEGF, change from control [3]: —

SMILES: CC(=O)CC(=O)OCCC(C)OC(=O)CC(C)=O (racemic) [LKE]
- Alanine Aminotransferase (ALT) [1]: ns
- Albumin [1]: ns
- Alkaline Phosphatase (ALP) [1]: ns
- Blood Urea Nitrogen (BUN) [1]: ns
- Calcium [1]: ns
- Chloride [1]: ns
- Cholesterol [1]: ns
- Creatinine [1]: ns
- Gamma Glutamyltransferase (GGT) [1]: ns
- Globulin [1]: ns
- Glucose [1]: ns
- Phosphorous [1]: ns
- Potassium [1]: ns
- Sodium [1]: ns
- Total Bilirubin [1]: ns
- Total Protein [1]: ns
- Approximate caloric intake compared to controls [2]: ~+10 % kcal
- Eotaxin, change from control [3]: ↓T
- Fractalkine, change from control [3]: ↑**
- G-CSF, change from control [3]: —
- GM-CSF, change from control [3]: —
- GRO/KC, change from control [3]: —
- IFNy, change from control [3]: —
- IL-1a, change from control [3]: —
- IL-1b, change from control [3]: —
- IL-2, change from control [3]: —
- IL-4, change from control [3]: —
- IL-5, change from control [3]: —
- IL-6, change from control [3]: ↓T
- IL-10, change from control [3]: —
- IL-12(p70), change from control [3]: ↓*
- IL-13, change from control [3]: ↓T
- IL-17a, change from control [3]: —
- IL-18, change from control [3]: —
- IP-10, change from control [3]: —
- LIX, change from control [3]: —
- Leptin, change from control [3]: —
- MCP-1, change from control [3]: —
- MIP-1a, change from control [3]: ↑T
- MIP-2, change from control [3]: —
- RANTES, change from control [3]: —
- TNF-a, change from control [3]: —
- VEGF, change from control [3]: ↑*

SMILES: CC(=O)CC(=O)OCCC(C)OC(=O)CC(C)=O (stereo not drawn) [BD-AcAc2, R,S-1,3-butanediol acetoacetate diester]
- contextual fear conditioning (hippocampal-dependent learning) (Ube3a-deficient mice [4]; 24 hours after training): improves hippocampal-dependent learning
- fear conditioning training phase (freezing) (Ube3a-deficient mice [4]; training phase): does not affect the fear conditioning training phase
- audiogenic seizure activity (Ube3a-deficient mice [5]; AS mice after 8 weeks on the diet, listed as ketone ester): decreased; also recorded: decreases seizure activity
- audiogenic seizure frequency (Ube3a-deficient mice [5]; AS treated group after 8 weeks on the diet, 120-dB white noise): 86%
- latency to seize (Ube3a-deficient mice [5]): increases latency to seize
- latency to seize (Ube3a-deficient mice [5]; listed as ketone ester): increased
- food consumption / caloric intake ([2]; male Sprague Dawley rats, fed ad libitum 15 weeks): adjusted food consumption to regulate caloric intake to a large extent
- behavioral seizure score (modified Racine's scale) (Ube3a-deficient mice [6]): significant decrease in behavioral seizure score
- novel object recognition memory (Ube3a-deficient mice [7]): enhances novel object recognition memory
- body weight / weight gain [8]: normalizes body weight
- body weight / weight gain [8, 11]: normalizes weight
- rotarod performance (Ube3a-deficient mice [9]): increases rotarod performance
- blood ketones ([10]; listed as KE): elevated ketones
- blood ketones [10, 11]: increases blood ketone levels
- blood glucose ([10]; listed as KE): decreased blood glucose
- blood glucose [10, 11]: decreases blood glucose
